Each block holds one compound with its values, some of them ahead of it. The source made the active and inactive calls. No cut-off for these calls is given here.
What was measured:
Homo sapiens [1] = species on record: Homo sapiens; assay: Inhibition of DNMT3B/3L (unknown origin) at 1 to 10 uM incubated for 1 hrs by scintillation proximity assay; details: dose 1-10 µM
U2OS [2] = assay: Antiproliferative activity against human U2OS cells assessed as inhibition in H4K20me2 expression level 21 doublings by Western blot analysis; format: functional, cell-based
[3] = molecular target: Serine/threonine-protein kinase pim-2 (Homo sapiens) (UniProt Q9P1W9); assay: Inhibition of human Pim2 at 10 uM relative to control
[4] = molecular target: RAC-alpha serine/threonine-protein kinase (Homo sapiens) (UniProt P31749); assay: Inhibition of human Akt1 at 10 uM relative to control
[5] = molecular target: DNMT3A2/3L complex (Homo sapiens) (UniProt Q9Y6K1+Q9UJW3); assay: Inhibition of DNMT3A/3L (unknown origin) at 1 to 10 uM incubated for 1 hrs by scintillation proximity assay; format: protein-complex assay; details: dose 1-10 µM
[6] = molecular target: Histone-lysine N-methyltransferase SETDB1 (Homo sapiens) (UniProt Q15047); assay: Inhibition of SETDB1 (unknown origin) using Biotin-tagged H4K20me1 and [3H-SAM] as substrate at 1 to 10 uM incubated for 2 hrs by scintillation proximity assay; details: dose 1-10 µM
[7] = molecular target: Glycogen synthase kinase-3 beta (Homo sapiens) (UniProt P49841); assay: Inhibition of human GSK3beta at 10 uM relative to control
[8] = molecular target: Histone-lysine N-methyltransferase 2A (Homo sapiens) (UniProt Q03164); assay: Inhibition of MLL1 (unknown origin) using Biotin-tagged H4K20me1 and [3H-SAM] as substrate at 1 to 10 uM incubated for 2 hrs by scintillation proximity assay; details: dose 1-10 µM
[9] = molecular target: Protein arginine N-methyltransferase 6 (Homo sapiens) (UniProt Q96LA8); assay: Inhibition of PRMT6 (unknown origin) using Biotin-tagged H4K20me1 and [3H-SAM] as substrate at 1 to 10 uM incubated for 2 hrs by scintillation proximity assay; details: dose 1-10 µM
[10] = molecular target: Serine/threonine-protein kinase PLK1 (Homo sapiens) (UniProt P53350); assay: Inhibition of human PLK1 at 10 uM relative to control
[11] = molecular target: Protein arginine N-methyltransferase 3 (Homo sapiens) (UniProt O60678); assay: Inhibition of PRMT3 (unknown origin) using Biotin-tagged H4K20me1 and [3H-SAM] as substrate at 1 to 10 uM incubated for 2 hrs by scintillation proximity assay; details: dose 1-10 µM
[12] = molecular target: Calcium/calmodulin-dependent protein kinase type II subunit alpha (Homo sapiens) (UniProt Q9UQM7); assay: Inhibition of human CaMK2alpha at 10 uM relative to control
LNCaP = assay: Cytotoxicity against human LNCaP cells assessed as cell viability upto 12.5 uM incubated for 48 hrs; format: functional, cell-based
U2OS [13] = assay: Inhibition of H4K20me2 in human U2OS cells at 3 uM incubated for 48 hrs by Western blotting analysis; format: functional, cell-based
[14] = molecular target: Serine/threonine-protein kinase Sgk1 (Homo sapiens) (UniProt O00141); assay: Inhibition of human SGK1 at 10 uM relative to control
[15] = molecular target: Histone-lysine N-methyltransferase, H3 lysine-36 specific (Homo sapiens) (UniProt Q96L73); assay: Inhibition of NSD1 (unknown origin) at 1 to 10 uM incubated for 1 hrs by scintillation proximity assay; details: dose 1-10 µM
MEF = assay: Antiproliferative activity against mouse MEF cells assessed as increase in H4K20me1 level at 10 uM incubated for 3 days by immunofluorescence analysis; format: functional, cell-based; details: time 3.0 day
[16] = molecular target: Histone-lysine N-methyltransferase KMT5B (Homo sapiens) (UniProt Q4FZB7); assay: Inhibition of recombinant human 6His-(Tev)-G-SUV420H1 (69 to 335 residues) using Biotin-tagged H4K20me1 and [3H-SAM] as substrate at 10 uM incubated for 2 hrs by scintillation proximity assay
[17] = molecular target: Epidermal growth factor receptor (Homo sapiens) (UniProt P00533); assay: Inhibition of human EGFR at 10 uM relative to control
[18] = molecular target: D(1B) dopamine receptor (Homo sapiens) (UniProt P21918); assay: Inhibition of human D(5) dopamine receptor expressed in HEK293T cells at 10 uM relative to control; format: cell-based
[19] = molecular target: PRMT5/MEP50 complex (Homo sapiens) (UniProt O14744+Q9BQA1); assay: Inhibition of PRMT5/MEP50 complex (unknown origin) using Biotin-tagged H4K20me1 and [3H-SAM] as substrate at 1 to 10 uM incubated for 2 hrs by scintillation proximity assay; format: protein-complex assay; details: dose 1-10 µM
U2OS [20] = assay: Inhibition of colony formation in human U2OS cells at 1 uM incubated for 48 hrs in the presence of CPT by cell clonogenic assay; format: functional, cell-based
[21] = molecular target: Histone-lysine N-methyltransferase SMYD3 (Homo sapiens) (UniProt Q9H7B4); assay: Inhibition of SMYD3 (unknown origin) using Biotin-tagged H4K20me1 and [3H-SAM] as substrate at 1 to 10 uM incubated for 2 hrs by scintillation proximity assay; details: dose 1-10 µM
[22] = molecular target: Rho-associated protein kinase 1 (Homo sapiens) (UniProt Q13464); assay: Inhibition of human ROCK1 at 10 uM relative to control
U2OS [23] = assay: Induction of cell cycle arrest in human U2OS cells assessed as increase in H4K20me1 in S phase at 0.6 to 6 uM by plot analysis; format: functional, cell-based; details: dose 0.6-6 µM
[24] = molecular target: Endothelin-1 receptor (Homo sapiens) (UniProt P25101); assay: Inhibition of human ETA at 10 uM relative to control
U2OS [25] = assay: Induction of DNA repair in human U2OS cells expressing I-SceI reporter assessed as substantially inhibition in NHEJ-mediated repair at 1 uM by flow cytometry analysis; format: functional, cell-based
U2OS [26] = assay: Cytotoxicity against human U2OS cells assessed as cell viability upto 12.5 uM incubated for 48 hrs; format: functional, cell-based
[27] = molecular target: Fibroblast growth factor receptor 1 (Homo sapiens) (UniProt P11362); assay: Inhibition of human FGFR1 kinase at 10 uM relative to control
[28] = molecular target: Histone-lysine N-methyltransferase KMT5B (Homo sapiens) (UniProt Q4FZB7); assay: Inhibition of recombinant human 6His-(Tev)-G-SUV420H1 (69 to 335 residues) using Biotin-tagged H4K20me1 and [3H-SAM] as substrate at 1 uM incubated for 2 hrs by scintillation proximity assay
U2OS [29] = assay: Inhibition of H4K20me3 in human U2OS cells assessed as change in methylation level at 10 uM incubated for 48 hrs by Western blotting analysis; format: functional, cell-based
Homo sapiens [30] = species on record: Homo sapiens; assay: Inhibition of human Gastric receptor I at 10 uM relative to control
[31] = molecular target: Sodium-dependent noradrenaline transporter (Homo sapiens) (UniProt P23975); assay: Inhibition of human Norepinephrine transporter at 10 uM relative to control
U2OS [32] = assay: Inhibition of H4K20me1 in human U2OS cells assessed as change in methylation level at 10 uM incubated for 48 hrs by Western blotting analysis; format: functional, cell-based
U2OS [33] = assay: Inhibition of H4K20me2 in human U2OS cells assessed as change in methylation level at 10 uM incubated for 48 hrs by Western blotting analysis; format: functional, cell-based
Homo sapiens [34] = species on record: Homo sapiens; assay: Inhibition of GABAA (unknown origin) at 10 uM relative to control

Chain of Histone-lysine N-methyltransferase KMT5B (Homo sapiens) (Q4FZB7 whole entry, looked up, the tested form may be a part): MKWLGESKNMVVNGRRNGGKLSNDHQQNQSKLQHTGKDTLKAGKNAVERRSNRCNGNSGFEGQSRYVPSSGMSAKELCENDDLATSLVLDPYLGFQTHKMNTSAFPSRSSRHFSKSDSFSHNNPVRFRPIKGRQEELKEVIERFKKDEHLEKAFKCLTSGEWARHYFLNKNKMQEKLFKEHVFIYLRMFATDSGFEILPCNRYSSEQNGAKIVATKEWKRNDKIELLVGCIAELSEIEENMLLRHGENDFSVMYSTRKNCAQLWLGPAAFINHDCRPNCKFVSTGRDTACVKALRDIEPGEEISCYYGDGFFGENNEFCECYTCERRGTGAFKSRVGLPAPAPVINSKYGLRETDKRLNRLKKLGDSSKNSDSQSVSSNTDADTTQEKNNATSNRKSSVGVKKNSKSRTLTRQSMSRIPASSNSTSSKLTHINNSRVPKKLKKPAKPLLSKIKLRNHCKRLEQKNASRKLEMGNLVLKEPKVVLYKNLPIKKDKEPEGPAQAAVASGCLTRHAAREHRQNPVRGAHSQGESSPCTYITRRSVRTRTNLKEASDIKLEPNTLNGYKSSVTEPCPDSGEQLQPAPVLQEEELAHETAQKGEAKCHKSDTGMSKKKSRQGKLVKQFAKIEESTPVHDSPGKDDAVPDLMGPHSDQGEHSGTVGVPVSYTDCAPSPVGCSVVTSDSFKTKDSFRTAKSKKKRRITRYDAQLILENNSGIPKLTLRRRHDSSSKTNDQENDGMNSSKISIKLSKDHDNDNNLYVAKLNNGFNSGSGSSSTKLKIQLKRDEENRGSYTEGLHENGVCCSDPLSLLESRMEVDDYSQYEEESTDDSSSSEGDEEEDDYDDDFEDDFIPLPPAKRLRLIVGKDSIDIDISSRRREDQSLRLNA
Chain of Epidermal growth factor receptor (Homo sapiens) (P00533 whole entry): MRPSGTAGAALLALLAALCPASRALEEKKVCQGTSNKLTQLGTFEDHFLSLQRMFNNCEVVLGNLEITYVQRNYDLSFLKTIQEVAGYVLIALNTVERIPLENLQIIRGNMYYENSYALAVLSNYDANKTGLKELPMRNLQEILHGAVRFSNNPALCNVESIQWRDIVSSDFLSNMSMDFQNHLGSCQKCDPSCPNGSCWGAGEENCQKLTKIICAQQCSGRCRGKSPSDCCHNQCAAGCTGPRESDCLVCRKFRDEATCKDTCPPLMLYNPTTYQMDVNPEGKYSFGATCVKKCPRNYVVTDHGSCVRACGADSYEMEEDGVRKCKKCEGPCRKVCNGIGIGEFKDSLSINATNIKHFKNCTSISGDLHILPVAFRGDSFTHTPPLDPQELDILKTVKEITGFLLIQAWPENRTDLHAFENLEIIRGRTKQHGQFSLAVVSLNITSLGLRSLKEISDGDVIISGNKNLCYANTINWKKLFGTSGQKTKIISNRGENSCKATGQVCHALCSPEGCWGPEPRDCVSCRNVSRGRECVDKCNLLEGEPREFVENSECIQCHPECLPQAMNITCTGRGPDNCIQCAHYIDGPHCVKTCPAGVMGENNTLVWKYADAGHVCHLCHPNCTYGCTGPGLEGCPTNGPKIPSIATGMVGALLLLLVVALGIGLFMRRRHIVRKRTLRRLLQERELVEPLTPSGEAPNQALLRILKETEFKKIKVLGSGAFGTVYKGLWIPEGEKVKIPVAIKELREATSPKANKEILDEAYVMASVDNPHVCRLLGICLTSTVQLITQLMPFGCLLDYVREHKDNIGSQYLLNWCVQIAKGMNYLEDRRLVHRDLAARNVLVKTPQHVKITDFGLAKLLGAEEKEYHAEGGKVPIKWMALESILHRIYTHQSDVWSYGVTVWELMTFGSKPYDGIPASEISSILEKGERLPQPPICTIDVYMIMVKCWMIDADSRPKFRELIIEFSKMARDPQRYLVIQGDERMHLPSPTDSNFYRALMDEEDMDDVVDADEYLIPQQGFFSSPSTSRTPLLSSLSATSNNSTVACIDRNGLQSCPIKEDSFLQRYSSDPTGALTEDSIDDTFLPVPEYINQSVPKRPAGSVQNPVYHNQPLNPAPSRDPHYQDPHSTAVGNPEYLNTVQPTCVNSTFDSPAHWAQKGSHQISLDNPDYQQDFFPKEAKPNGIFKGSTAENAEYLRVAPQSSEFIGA
Chain of Histone-lysine N-methyltransferase, H3 lysine-36 specific (Homo sapiens) (Q96L73 whole entry): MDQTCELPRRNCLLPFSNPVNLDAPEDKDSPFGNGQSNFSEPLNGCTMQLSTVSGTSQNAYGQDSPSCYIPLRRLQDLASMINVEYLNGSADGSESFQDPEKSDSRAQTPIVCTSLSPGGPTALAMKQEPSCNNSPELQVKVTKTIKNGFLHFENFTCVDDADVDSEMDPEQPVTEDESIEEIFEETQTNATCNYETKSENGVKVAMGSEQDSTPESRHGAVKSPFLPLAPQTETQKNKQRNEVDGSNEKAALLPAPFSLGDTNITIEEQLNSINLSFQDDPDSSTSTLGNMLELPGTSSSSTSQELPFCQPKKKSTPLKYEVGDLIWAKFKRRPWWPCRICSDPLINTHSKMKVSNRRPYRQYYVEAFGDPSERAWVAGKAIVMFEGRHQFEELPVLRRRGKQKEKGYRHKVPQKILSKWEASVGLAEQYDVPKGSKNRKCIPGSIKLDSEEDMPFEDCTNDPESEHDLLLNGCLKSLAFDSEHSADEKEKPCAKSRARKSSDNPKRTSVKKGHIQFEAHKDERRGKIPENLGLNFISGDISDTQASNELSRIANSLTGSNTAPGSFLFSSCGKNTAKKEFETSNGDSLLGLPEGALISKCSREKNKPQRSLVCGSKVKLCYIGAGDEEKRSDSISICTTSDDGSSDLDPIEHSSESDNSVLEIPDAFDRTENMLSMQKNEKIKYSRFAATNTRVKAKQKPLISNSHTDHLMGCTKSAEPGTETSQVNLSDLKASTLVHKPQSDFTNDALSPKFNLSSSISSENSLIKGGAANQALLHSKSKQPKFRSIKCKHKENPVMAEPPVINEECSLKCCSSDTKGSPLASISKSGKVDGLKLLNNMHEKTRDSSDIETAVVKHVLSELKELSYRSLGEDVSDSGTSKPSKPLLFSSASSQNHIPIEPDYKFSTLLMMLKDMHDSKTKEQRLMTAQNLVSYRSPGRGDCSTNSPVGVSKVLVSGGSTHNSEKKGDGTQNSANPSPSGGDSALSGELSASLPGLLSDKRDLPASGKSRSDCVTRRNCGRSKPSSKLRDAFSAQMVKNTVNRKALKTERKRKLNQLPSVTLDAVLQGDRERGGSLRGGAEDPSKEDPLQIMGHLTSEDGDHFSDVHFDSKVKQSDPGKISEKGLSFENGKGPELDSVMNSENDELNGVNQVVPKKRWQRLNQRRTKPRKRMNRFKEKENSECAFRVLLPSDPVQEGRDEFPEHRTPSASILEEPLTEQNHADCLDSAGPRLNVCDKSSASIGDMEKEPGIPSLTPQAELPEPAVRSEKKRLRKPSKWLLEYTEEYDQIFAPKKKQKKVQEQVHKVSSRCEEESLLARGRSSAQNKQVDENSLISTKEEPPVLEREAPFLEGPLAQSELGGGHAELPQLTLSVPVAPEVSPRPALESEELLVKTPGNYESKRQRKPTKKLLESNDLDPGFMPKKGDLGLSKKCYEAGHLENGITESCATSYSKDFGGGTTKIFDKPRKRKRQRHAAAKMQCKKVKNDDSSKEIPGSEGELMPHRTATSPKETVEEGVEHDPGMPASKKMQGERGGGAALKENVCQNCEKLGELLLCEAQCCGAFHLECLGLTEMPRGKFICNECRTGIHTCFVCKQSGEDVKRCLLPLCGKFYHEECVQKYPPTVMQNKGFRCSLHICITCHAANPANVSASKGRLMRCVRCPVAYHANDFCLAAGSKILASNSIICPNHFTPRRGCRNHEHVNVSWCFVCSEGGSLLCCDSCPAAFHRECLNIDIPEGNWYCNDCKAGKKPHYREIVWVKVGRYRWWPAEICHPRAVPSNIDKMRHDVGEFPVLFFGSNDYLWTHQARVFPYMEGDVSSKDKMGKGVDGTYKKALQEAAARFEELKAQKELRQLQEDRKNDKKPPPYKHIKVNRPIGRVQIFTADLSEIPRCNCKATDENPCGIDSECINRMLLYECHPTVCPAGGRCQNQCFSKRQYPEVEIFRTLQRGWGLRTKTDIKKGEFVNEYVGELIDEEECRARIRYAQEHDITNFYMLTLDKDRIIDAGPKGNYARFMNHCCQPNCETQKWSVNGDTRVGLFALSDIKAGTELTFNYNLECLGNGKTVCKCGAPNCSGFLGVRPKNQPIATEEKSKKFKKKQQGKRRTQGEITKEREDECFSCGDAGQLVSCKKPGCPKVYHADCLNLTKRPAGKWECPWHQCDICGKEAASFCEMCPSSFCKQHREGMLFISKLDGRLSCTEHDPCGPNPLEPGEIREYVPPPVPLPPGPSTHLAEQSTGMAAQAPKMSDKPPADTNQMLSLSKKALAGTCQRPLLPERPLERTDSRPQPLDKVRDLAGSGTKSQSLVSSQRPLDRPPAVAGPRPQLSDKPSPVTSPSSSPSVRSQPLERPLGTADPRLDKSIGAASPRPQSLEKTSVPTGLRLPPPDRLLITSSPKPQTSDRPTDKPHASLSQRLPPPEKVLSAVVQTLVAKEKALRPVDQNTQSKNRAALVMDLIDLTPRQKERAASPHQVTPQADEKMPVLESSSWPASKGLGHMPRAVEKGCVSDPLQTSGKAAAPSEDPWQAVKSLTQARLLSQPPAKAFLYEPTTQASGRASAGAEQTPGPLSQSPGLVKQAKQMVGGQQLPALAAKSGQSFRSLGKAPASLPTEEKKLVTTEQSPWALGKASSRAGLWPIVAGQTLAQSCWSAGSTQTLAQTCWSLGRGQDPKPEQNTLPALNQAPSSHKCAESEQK
Chain of Serine/threonine-protein kinase pim-2 (Homo sapiens) (Q9P1W9 whole entry, looked up): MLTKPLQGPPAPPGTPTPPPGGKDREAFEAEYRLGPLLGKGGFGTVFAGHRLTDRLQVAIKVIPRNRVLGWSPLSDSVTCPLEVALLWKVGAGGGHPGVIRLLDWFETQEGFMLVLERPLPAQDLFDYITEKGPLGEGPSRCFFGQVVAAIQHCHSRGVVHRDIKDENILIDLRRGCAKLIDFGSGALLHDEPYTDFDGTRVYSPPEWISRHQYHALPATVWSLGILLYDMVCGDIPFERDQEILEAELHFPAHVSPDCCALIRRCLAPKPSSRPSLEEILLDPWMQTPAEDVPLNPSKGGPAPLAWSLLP

inhibition (Homo sapiens [1]): inactive
inhibition [3]: -3%
inhibition [4]: 0%
inhibition [5]: inactive
inhibition [6]: inactive
inhibition [7]: 1%
inhibition [8]: inactive
inhibition [9]: inactive
inhibition [10]: -10%
inhibition [11]: inactive
inhibition [12]: -5%
inhibition [14]: -4%
inhibition [15]: inactive
inhibition [16]: Active
inhibition [17]: -4%
inhibition [18]: -4%
inhibition [19]: inactive
inhibition [21]: inactive
inhibition [22]: -1%
inhibition [24]: -5%
inhibition [27]: -8%
inhibition [28]: Active
SMILES: Clc1cc2c(NC3CCCC3)nnc(-c3ccncc3)c2cc1Cl
Activity (U2OS [2]): Active
Activity (LNCaP): Active
inhibition (U2OS [13]): Active
Activity (MEF): Active
inhibition (U2OS [20]): Active
Activity (U2OS [23]): Active
Activity (U2OS [25]): Active
Activity (U2OS [26]): Active

inhibition (Homo sapiens [30]): -5%
inhibition [31]: 1%
inhibition (Homo sapiens [34]): 25%
SMILES: O=C(c1nnc(NC2CCCC2)c2cc(Cl)c(Cl)cc12)N1CCC(O)CC1
Activity (U2OS [29]): inactive
Activity (U2OS [32]): inactive
Activity (U2OS [33]): inactive

Source: ChEMBL document CHEMBL5649167, “The SUV4-20 inhibitor A-196 verifies a role for epigenetics in genomic integrity” (Nat Chem Biol, 2017)
